This experiment addresses T1, NEDD4L WW3 (Homo sapiens, UniProt Q96PU5).
T1 construct: -WW3(497 -530); GST (N, cleaved yes); made in house; host or cells: E. coli Rosetta-pLysS
Put plainly: Fluorescence polarization (FP) anisotropy binding of labeled AMOT PPxY peptides to recombinant NEDD4L WW3 domain. The following applies: for fold reduction of NEDD4L WW3 binding affinity relative to the wt peptide: FP Kd ratio mutant / wt. On the procedure: Each dilution series was performed at least in triplicate. […] The mean Kd values are reported as mean ± SEM.

Molecules are shown by their SMILES. Peptide text beside a SMILES is read from it. * marks the point of attachment. X1 = O=C1OC2(c3cc(F)c(O)cc3Oc3cc(O)c(F)cc32)c2ccc(N3C(=O)CC(*)C3=O)cc21

T1 sequence (Q96PU5 497-530 limits assumed): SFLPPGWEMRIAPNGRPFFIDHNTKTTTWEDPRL

With `CSCC[C@H](NC(=O)CNC(=O)[C@H](CCCCN)NC(=O)[C@H](Cc1ccccc1)NC(=O)[C@@H]1CCCN1C(=O)[C@H](Cc1ccc(O)cc1)NC(=O)[C@H](CCC(=O)O)NC(=O)[C@@H]1CCCN1C(=O)[C@H](CC(C)C)NC(=O)[C@@H]1CCCN1C(=O)CNC(=O)[C@H](CCCNC(=N)N)NC(=O)[C@H](Cc1c[nH]cn1)NC(=O)[C@H](CCC(=O)O)NC(=O)[C@H](CCSC)NC(=O)[C@@H](N)CSC1CC(=O)N(c2ccc3c(c2)C(=O)OC32c3cc(F)c(O)cc3Oc3cc(O)c(F)cc32)C1=O)C(N)=O` (stereo partly shown) [(P/L)PPxY2] (H-C(X1)MEHRGPLPEYPFKGM-NH2; N-terminus and C-terminus assumed), the “fold reduction of NEDD4L WW3 binding affinity relative to the wt peptide” value is listed as 2.8 fold.

For the compound `CSCC[C@H](NC(=O)[C@@H](N)CSC1CC(=O)N(c2ccc3c(c2)C(=O)OC32c3cc(F)c(O)cc3Oc3cc(O)c(F)cc32)C1=O)C(=O)N[C@@H](CCC(N)=O)C(=O)N[C@@H](CC(N)=O)C(=O)N[C@@H](CC(N)=O)C(=O)N[C@@H](CCC(=O)O)C(=O)N[C@@H](CCC(=O)O)C(=O)N[C@@H](CC(C)C)C(=O)N1CCC[C@H]1C(=O)N[C@H](C(=O)N[C@@H](Cc1ccc(O)cc1)C(=O)N[C@@H](CCC(=O)O)C(=O)N[C@@H](CCC(=O)O)C(=O)N[C@@H](CCCCN)C(=O)N[C@@H](CCCCN)C(=O)N[C@H](C(N)=O)C(C)C)[C@@H](C)O` (stereo partly shown) [A112K] (H-C(X1)MQNNEELPTYEEKKV-NH2; N-terminus and C-terminus assumed), the “fold reduction of NEDD4L WW3 binding affinity relative to the wt peptide” value was determined as 8 fold. Regarding `CSCC[C@H](NC(=O)[C@@H](N)CSC1CC(=O)N(c2ccc3c(c2)C(=O)OC32c3cc(F)c(O)cc3Oc3cc(O)c(F)cc32)C1=O)C(=O)N[C@@H](CCC(N)=O)C(=O)N[C@@H](CC(N)=O)C(=O)N[C@@H](CC(N)=O)C(=O)N[C@@H](CCCCN)C(=O)N[C@@H](CCCCN)C(=O)N[C@@H](CC(C)C)C(=O)N1CCC[C@H]1C(=O)N[C@H](C(=O)N[C@@H](Cc1ccc(O)cc1)C(=O)N[C@@H](CCC(=O)O)C(=O)N[C@@H](CCC(=O)O)C(=O)N[C@@H](C)C(=O)N[C@@H](CCCCN)C(=O)N[C@H](C(N)=O)C(C)C)[C@@H](C)O` (stereo partly shown) [E104K/E105K] (H-C(X1)MQNNKKLPTYEEAKV-NH2; N-terminus and C-terminus assumed), the “fold reduction of NEDD4L WW3 binding affinity relative to the wt peptide” value was determined as 6 fold. Turning to `CSCC[C@H](NC(=O)[C@@H](N)CSC1CC(=O)N(c2ccc3c(c2)C(=O)OC32c3cc(F)c(O)cc3Oc3cc(O)c(F)cc32)C1=O)C(=O)N[C@@H](CCC(N)=O)C(=O)N[C@@H](CC(N)=O)C(=O)N[C@@H](CC(N)=O)C(=O)N[C@@H](CCC(=O)O)C(=O)N[C@@H](CCC(=O)O)C(=O)N[C@@H](CC(C)C)C(=O)N1CCC[C@H]1C(=O)N[C@H](C(=O)N[C@@H](Cc1ccc(O)cc1)C(=O)N[C@@H](CCC(=O)O)C(=O)N[C@@H](CCC(=O)O)C(=O)N[C@@H](C)C(=O)N[C@@H](CCCCN)C(=O)N[C@H](C(N)=O)C(C)C)[C@@H](C)O` (stereo partly shown) [PPxY1] (H-C(X1)MQNNEELPTYEEAKV-NH2; N-terminus and C-terminus assumed), under “PPxY1-WW3 compared with the 11 other pairs of Fig. 3E”, the “fold tighter binding than any other pairwise AMOT PPxY-NEDD4L WW interaction” value is “more than 5 fold”.
